The test system of the data set is horses. Nature of the data set: Target Animal Safety (TAS) study / toxicity of formulations in horses. It counts as in vivo. As to conditions: in vivo. The source says:
The drug product vehicle contains about 35-45 wt % alcohol, 46 wt % propylene glycol and 10 wt % WFI. […] Test doses (in horses) with the vehicle confirmed that the dose toxicity was due to the vehicle. More specifically, propylene glycol was believed to be the cause of toxicity.

Consider one molecule from patent publication US20220387433A1, “TYPE V PHOSPHODIESTERASE INHIBITOR COMPOSITIONS, METHODS OF MAKING THEM AND METHODS OF USING THEM IN PREVENTING OR TREATING ELEVATED PULMONARY VASCULAR PRESSURE OR PULMONARY HEMORRHAGES” (American Regent, Inc., priority 2019, published 2022).

With `CNC[C@H](O)[C@@H](O)[C@H](O)[C@H](O)CO` [meglumine, 1-Deoxy-1-methylaminosorbitol], the Toxicity to horses entry is listed as “non-toxic”.
